In patent publication US11744837B2, “Use of cortisol in assessment and prophylactic treatment of hypokalemia associated with glucocorticoid receptor modulator treatment of Cushing's syndrome patients” (Corcept Therapeutics, Inc., priority 2018, dated 2023):
Where two headings read alike, the source gives them in different places.

Experiments:
[1] = tested on: mifepristone treated subjects (PMD and Alzheimer's trials); assay: Completed PMD and Alzheimer's trials together: clinically meaningful hypokalemia; assay type: in vivo, human; details: 16 of 821 mifepristone treated subjects
From the text: (§1) Clinically meaningful hypokalemia (<3.1) has been reported in 16 of 821 (1.9%) mifepristone treated subjects (12 in completed double blind PMD trials, and 4 in a completed Alzheimer's trial), and in 5 of 626 (0.8%) placebo treated subjects in completed PMD trials.

healthy volunteers = assay: Previous clinical studies in healthy volunteers: adverse events; assay type: in vivo, human
From the text: Hypokalemia and rash appear to be more common in subjects receiving mifepristone than in the control groups.

[2] = tested on: Cushing's syndrome patients; details: in vivo
Method: The risk of experiencing at least one episode of hypokalemia (potassium level <3.5 mEq/L) after 7 to 14 Days of exposure to KORLYM (mifepristone) was evaluated using stepwise multivariable logistic regression and single-variable logistic regression models. The following independent factors were evaluated for potential association with hypokalemia based on the biology of the disease: total cortisol at Day 1, ACTH at Day 1, and potassium level at Day 1.
The risk of experiencing at least one episode of hypokalemia (potassium level <3.5 mmol/L) after 28 Days of exposure to KORLYM was evaluated using stepwise multivariable logistic regression and single-variable logistic regression models. The following independent factors were evaluated for potential association with hypokalemia based on the biology of the disease: total cortisol at Day 1 and Day 14 (cort_01 and cort_14), ACTH at Day 1 and Day 14 (ACTH_01 and ACTH_14), and potassium levels at Day 1 and Day 14 (K_01 and K_14).
Patients were defined to have severe/recurrent hypokalemia for this analysis if they had at least one value of potassium of 2.5 mmol/L or lower, or if they had recurrent hypokalemia (hypokalemia occurring during multiple visits after Day 14 visit).
The Cushing's syndrome study reported herein was conducted in accordance with the Declaration of Helsinki and Good Clinical Practice (GCP) according to International Conference on Harmonization (ICH) guidelines.
(§2) Dosing Schedule Dosing was started with 300 mg of mifepristone once per day for 14 days. After 14 days, if no clinical improvement was seen but the drug was well tolerated, the dose of mifepristone was increased to 600 mg once per day. After 4 weeks of dosing at 600 mg once per day, if no clinical improvement was seen but the drug was well tolerated, the dose was increased to 900 mg once per day. Dose escalation was based on weight with the maximum dose no higher than 20 mg/kg/day. […] After 4 weeks of dosing at 900 mg once per day, if no clinical improvement was seen but the drug was well tolerated, the dose was increased to 1200 mg once per day. Study duration was 24 weeks.
Serum electrolytes, including potassium, were measured regularly throughout the study period.
(§3) Potassium levels were obtained on every subject at either screening or the pre-drug administration baseline visit, and then also at every scheduled post-baseline visit. Potassium levels post-baseline were therefore obtained as early as day 7 and through day 210 (week 30 was the last visit and was the 6 week follow-up visit). ACTH, and cortisol were measured at six visits (week 2 (day 14), week 6 (day 42), week 10 (day 70), week 16 (day 112), and week 24 (day 168) week 6 follow-up (day 210)).

cortisol [3] = assay: Total serum cortisol during mifepristone treatment of Cushing's syndrome patients; assay type: in vivo, human
From the text: (§4) The term “measuring the level,” in the context of cortisol, ACTH, mifepristone, or other compounds, refers to determining, detecting, or quantitating the amount, level, or concentration of, for example, cortisol, ACTH, mifepristone, or other compound in a sample obtained from a subject. Plasma or serum samples are often used for measuring ACTH or cortisol level.
(§5) The types of samples that are suitable for cortisol determination can be serum, plasma, saliva, urine, or any other biological fluid taken from a subject. In preferred embodiments, the sample is a serum sample, or is a plasma sample. The level of cortisol can be measured using various methods, including but not limited to, immunoassays, e.g., competitive immunoassay, radioimmunoassay (MA), immunofluorometric enzyme assay, and ELISA; competitive protein-binding assays; liquid chromatography (e.g., HPLC); and mass spectrometry, e.g., high-performance liquid chromatography/triple quadrupole-mass spectrometry (LC-MS/MS). In preferred embodiments, cortisol levels are measured using LC-MS/MS, such as performed by Quest Diagnostics (Secaucus, N.J. 07094).
Dosing Schedule Dosing was started with 300 mg of mifepristone once per day for 14 days. After 14 days, if no clinical improvement was seen but the drug was well tolerated, the dose of mifepristone was increased to 600 mg once per day. After 4 weeks of dosing at 600 mg once per day, if no clinical improvement was seen but the drug was well tolerated, the dose was increased to 900 mg once per day. Dose escalation was based on weight with the maximum dose no higher than 20 mg/kg/day. […]
as §3, with “Potassium levels post-baseline were therefore obtained as early as day 7 and through day 210 (week 30 was the last visit and was the 6 week follow-up visit).” left out

cortisol [4] = assay: 24-hour urine cortisol during mifepristone treatment of Cushing's syndrome patients; assay type: in vivo, human
Method: as §2, §3

[5] = tested on: subjects in an Alzheimer's study; assay: Alzheimer's study: hypokalemia; assay type: in vivo, human
From the text: as §1

ACTH = ACTH levels during mifepristone treatment of Cushing's syndrome patients; assay type: in vivo, human
From the text: as §4
as §5, with “ACTH” for “cortisol”, “(LC-MS/MS). Commercial kits for measuring ACTH are readily available, e.g., from Mayo clinic (Test ID: ACTH), Siemens Healthcare Global (Immulite® 2000 ACTH assay), and Roche Molecular Diagnostics (Catalog No. 03255751190).” for “(LC-MS/MS).”, “a radioimmunoassay (RIA), most preferable a two-site MA,” for “LC-MS/MS,”
as §2, §3

[6] = tested on: psychotic major depression (PMD) subjects; assay: Double blind psychotic major depression (PMD) trials: hypokalemia; assay type: in vivo, human; details: completed double blind PMD trials
From the text: as §1

[7] = tested on: Cushing's syndrome patients; details: cited from earlier work
[8] = 43 subjects with Cushing's disease
[9] = patients who did not experience hypokalemia

- Clinically meaningful hypokalemia (<3.1) [1]: 1.9%
- Severe/Recurrent Hypokalemia ([2]; both, human): 9 (20.0) n (%)
- developed hypokalemia on or after Day 28 ([2]; both, human): 6.7%
- developed severe/recurrent hypokalemia on or after Day 28 ([2]; both, human): 6.7%
- subjects with a Potassium value ≤3.5 mmol/L at any of the six visits ([2]; both, human): 21
- subjects with a Potassium value ≤3.5 mmol/L at any post-baseline visit ([2]; both, human): 23
- Number with Hypokalemia (%) (Potassium ≤ 3.4 mEq/L) ([2]; both, human, 6 weeks): 7 (14%)
- Number with Hypokalemia (%) (Potassium ≤ 3.4 mEq/L) ([2]; both, human, 8 weeks): 4 (8%)
- Number with Hypokalemia (%) (Potassium ≤ 3.4 mEq/L) ([2]; both, human, 10 weeks): 4 (8%)
- Number with Hypokalemia (%) (Potassium ≤ 3.4 mEq/L) ([2]; both, human, 12 weeks): 3 (6%)
- Number with Severe Hypokalemia (%) (Potassium ≤ 2.5 mEq/L) ([2]; both, human, 12 weeks): 1 (2%)
- Number with Hypokalemia (%) (Potassium ≤ 3.4 mEq/L) ([2]; both, human, 16 weeks): 5 (10%)
- Number with Severe Hypokalemia (%) (Potassium ≤ 2.5 mEq/L) ([2]; both, human, 16 weeks): 1 (2%)
- Number with Hypokalemia (%) (Potassium ≤ 3.4 mEq/L) ([2]; both, human, 20 weeks): 1 (2%)
- Decreased potassium observed during at least one visit ([2]; both, human, 24 weeks): about 30%
- Number with Hypokalemia (%) (Potassium ≤ 3.4 mEq/L) ([2]; both, human, 24 weeks): 4 (8%)
- developed hypokalemia after dosing with KORLYM ([2]; both, human, 24 weeks): 42.9%
- Number with Hypokalemia (%) (Potassium ≤ 3.4 mEq/L) ([2]; both, human, 30 weeks): 3 (6%)
- Number with Severe Hypokalemia (%) (Potassium ≤ 2.5 mEq/L) ([2]; both, human, 30 weeks): 1 (2%)
- Number with Hypokalemia (%) (Potassium ≤ 3.4 mEq/L) ([2]; both, human, 1 day): 2 (4%)
- Number with Hypokalemia (%) (Potassium ≤ 3.4 mEq/L) ([2]; both, human, 7 day): 2 (4%)
- Number with Hypokalemia (%) (Potassium ≤ 3.4 mEq/L) ([2]; both, human, 14 day): 8 (16%)
- Number with Severe Hypokalemia (%) (Potassium ≤ 2.5 mEq/L) ([2]; both, human, 14 day): 1 (2%)
- share of subjects with a Potassium value ≤3.5 mmol/L as early as day 14, all post-baseline values ([2]; both, human, 14 days): 48%
- share of those subjects with a Potassium value ≤3.5 mmol/L as early as day 14 ([2]; both, human, 14 days): 38%
- Number with Hypokalemia (%) (Potassium ≤ 3.4 mEq/L) ([2]; both, human, 28 day): 10 (20%)
- Number of Subjects Hypokalemic <=3.5 mmol/L ([2]; both, human, 210 day): 3
- Number of Subjects Non-Hypokalemic >3.5 mmol/L ([2]; both, human, 210 day): 37
- patients with at least one potassium value of 2.5 mmol/L or lower [2]: two
- severity of hypokalemia [2]: generally mild to moderate
- subjects with a day 7 Potassium value ≤3.5 mmol/L [2]: three
- subjects with clinically meaningful hypokalemia (<3.1) ([5]; completed Alzheimer's trial): 4
- subjects with hypokalemia in the range of 2.8 to 3.5 mEq/L ([5]; out of 33 subjects, 300 mg per day of mifepristone for 16 weeks): 9
- subjects with clinically meaningful hypokalemia (<3.1) [6]: 12
Compound: CC#C[C@]1(O)CC[C@H]2[C@@H]3CCC4=CC(=O)CCC4=C3[C@@H](c3ccc(N(C)C)cc3)C[C@@]21C [mifepristone, 11β-(4-dimethylaminophenyl)-17β-hydroxy-17α-(1-propynyl)-estra-4,9-dien-3-one]
- frequently reported adverse events (healthy volunteers; mifepristone administered to healthy volunteers): headache, gastrointestinal symptoms including diarrhea, nausea and vomiting, and rash
- Hypokalemia and rash compared with the control groups (healthy volunteers; subjects receiving mifepristone): more common
- change of serum cortisol during mifepristone treatment (cortisol [3]; [8]): increased to a smaller degree
- total serum cortisol levels (cortisol [3]; patients who did not experience hypokalemia, early on during mifepristone treatment (e.g., day 14 and/or day 42)): below 1000 nmol/L
- total serum cortisol levels (cortisol [3]; patients who experienced hypokalemia, early on during mifepristone treatment (e.g., day 14 and day 42)): above 1000 nmol/L
- 24 Hour Urine Cortisol (nmol/24 hr)/ACTH Ratio Visit Values, Mean ± SD (cortisol [4]; Day 42, Non-Hypokalemic (N 35)): 7.9 ± 6.0 (35)
- 24 Hour Urine Cortisol (nmol/24 hr)/ACTH Ratio Visit Values, Mean ± SD (cortisol [4]; Day 70, Non-Hypokalemic (N 30)): 17.0 ± 32.7 (30)
- 24 Hour Urine Cortisol (nmol/24 hr)/ACTH Ratio Visit Values, Mean ± SD (cortisol [4]; Day 112, Non-Hypokalemic (N 23)): 9.6 ± 16.3 (23)
- ratios of 24-hour urine cortisol values divided by ACTH values (cortisol [4]; patients experiencing hypokalemia): greater than 20
- ratios of 24-hour urine cortisol values divided by ACTH values (cortisol [4]; [9]): less than 20
- 24 hour urine cortisol levels (cortisol [4]; patients who did not experience hypokalemia, at all times during mifepristone treatment): below 1700 nmol/24 hr
- 24-hour urine cortisol levels (cortisol [4]; patients who experienced hypokalemia): above 2000 nmol/24 hr
- change in 24-hour urine cortisol levels as compared to baseline (cortisol [4]; patients who experienced hypokalemia, day 42): greater than 600 nmol/24 hr
- change of ACTH during mifepristone treatment (ACTH; [8]): increased about two-fold
- Ratio of ACTH Visit Change Values from Baseline per Baseline (ACTH_CHG/ACTH Baseline), Mean ± SD (ACTH; Day 42, Hypokalemic (N 6)): 2.50 ± 0.61 (6)
- Ratio of ACTH Visit Change Values from Baseline per Baseline (ACTH_CHG/ACTH Baseline), Mean ± SD (ACTH; Day 168, Hypokalemic (N 5)): 3.30 ± 2.54 (5)
- rise of ACTH levels following an initial increase in mifepristone dose (FIG. 1) (ACTH; [9]): about 25 pg/mL
- patients with serum potassium levels less than 3.5 mEq/L ([7]; of 43 Cushing's syndrome patients treated with mifepristone): 22
- patients with serum potassium levels less than 2.5 mEq/L (severe hypokalemia) ([7]; of the 22 of 43 patients with potassium <3.5 mEq/L): 3
